This note sets out measurements from patent EP0052238B1, “A new vincamine derivative, a method for its preparation and pharmaceutical compositions containing it” (MEDEA RESEARCH S.r.l., priority 1980, dated 1982).

One may read the LD50 as the dose expected to kill half of the subjects tested. A high value points to a less toxic substance.

Series [1] can be described thus: Acute toxicity in mice (LD50, Lichtfield and Wilcoxon). To be noted: mouse, in vivo, ip.
The subject of the next series is mice. Nature of the series: Protective action on the mortality by hypobaric hypoxia. Format: in vivo. To be noted: intravenous route, 25.6 mg/kg; for Survival time: pressure reduced until 190 mm Hg; for % Variation: survival time versus controls.
The test system of series [2] is smooth musculature of the isolated ileum of rabbits, made hypertonic by serotonin. Nature of the series: Myorelaxing effect on isolated ileum made hypertonic by serotonin. To be noted: isolated rabbit ileum, relative to vincamine. From the text:
(§1) The myorelaxing effect of MR 711 and vincamine has been investigated on the smooth musculature of the isolated ileum of rabbits, made hypertonic by sodium ions or serotonin.

The test system of series [3] is smooth musculature of the isolated ileum of rabbits, made hypertonic by sodium ions. Nature of the series: Myorelaxing effect on isolated ileum made hypertonic by sodium ions. To be noted: isolated rabbit ileum, relative to vincamine.
From the text: as §1

In turn, `CC[C@]12CCCN3CCc4c(n(c5ccccc45)[C@@](O)(C(=O)OC)C1)[C@@H]32` [Vincamine] had an LD50 in series [1] of 195 mg/kg. For the same molecule, in the series on mice, the Survival time turned out to be 213.3 ± 37.9 s and the “% Variation” value was “+194%”.
Take `CCC12C=C(C(=O)OCOC)n3c4c(c5ccccc53)CCN(CCC1)C42` (centres unmarked) [MR 711, 13a-ethyl-2,3,5,6,13a,13b-hexahydro-1 H-indolo[3,2,1-de]pyrido[3,2,1-ij]-[1,5]naphthyridine-12-methoxymethylcarboxylate]: the “activity in inhibiting the serotonin induced contractions, higher than the corresponding activity displayed by vincamine” value in series [2] is given as 70%. The “activity in inhibiting the sodium ions induced contractions, higher than the corresponding activity displayed by vincamine” value in series [3] came to 46%. In series [1], the LD50 worked out at 580 mg/kg. In addition, in the series with mice, the Survival time is 262.9 ± 31.4 s and the “% Variation” value was “+263%”.
